Data on nine compounds can be found in patent US12390472B2 (SUZHOU SINOVENT PHARMACEUTICALS CO., LTD., priority 2018, dated 2025).

By IC50 is commonly meant the concentration at which inhibition is half-maximal.

Structures are written as SMILES.

Assay [1] has as its system WSU-DLCL2. In words: Methylated lysine of histone-H3 (H3K27Me3) detection by ELISA, WSU-DLCL2 cells. It is filed as cell-based. The conditions noted are these: Homo sapiens, WSUDLCL2, 168 h; WSU-DLCL2, 7 days treatment, H3K27Me3 normalized to total histone-3; read-out: IC50 of cell methylation, WSU-DLCL2. The procedure: (§1) The operations for adherent cells and suspension cells cultured in 96-well plates were slightly different after they had been treated with compound (4-fold dilution 20 uM-0.009 nM, 3 duplicate wells) for 7 days, and the operations are summarized as follows: For adherent cells, after discarding the medium, 75 uL of 1-fold hypotonic lysis buffer (10 mM Tris-HCl, pH 7.5, containing halt protease inhibitor and PMSF with a final concentration of 1 mM) was added; the plate was frozen at −80° C. for at least 1 h or overnight; once the plate was taken away from the −80° C. environment, 120 uL (to a final volume of about 195 uL) of 1-fold hypotonic lysis buffer (containing protease inhibitor) was added, and the plate was thawed at room temperature and shaken for 2 min for mixing; and 8 uL (to a final volume of about 203 uL) of 2.5 M NaCl was added to each well to a final NaCl concentration of 100 mM and then the plate was shaken for an additional 2 min for mixing.
(§2) For suspension cells (final volume of medium was 100 uL/well), 25 uL of 5-fold hypotonic lysis buffer (50 mM Tris-HCl, pH 7.5, containing halt protease inhibitor and PMSF with a final concentration of 1 mM) was added, and the plate was frozen at −80° C. for at least 1 h or overnight. Once the plate was taken away from the −80° C. environment, 20 uL of 0.625 M NaCl was added to each well to a final NaCl concentration of about 100 mM, and the mixture was mixed well.
(§3) 75 uL or 100 uL of sample (with duplicate wells provided) was added to two 96-well ELISA plates (ThermoFisher Scientific; Immulon 4HBX 3885) and the plates were coated with total protein lysate and incubated overnight at 4° C. 50 uL of lysate was retained for protein quantitation if necessary. The sealing of the plates must be ensured. The plates were washed twice with 300 uL of 1×PBST (PBS containing 0.05% Tween 20) per well. Each well was blocked with 300 uL of dilution (PBS+2% BSA+0.05% Tween 20), incubated for 2 h at room temperature, and washed twice with 1×PBST. Primary antibodies were diluted with a dilution solution containing 1% BSA+0.05% Tween 20. 75-100 uL of anti-H3K27Me3 antibody (CST; 9733; 50% glycerol stock, 1:1,000) or anti-total histone-3 antibody (Abcam; ab1791; 50% glycerol stock, 1:10,000) was added to each well. The plates were incubated for 90 min at room temperature or incubated overnight at 4° C. The plates were washed three times with 1×PBST. 75-100 uL of anti-Rb-IgG-HRP secondary antibody (Cell Signaling Technology; 7074) was added per well, 1:2000 diluted secondary antibody for anti-H3K 27Me3 plate and 1:6000 diluted secondary antibody for anti-histone total histone-3 plate. The plates were incubated at room temperature for 90 min. The plate assayed with anti-histone-3 antibody was used to normalize the data for the corresponding plate assayed with anti-H3K 27me3. The plates must be washed at least three times with 1×PBST after primary or secondary antibody incubation. The plates were assayed by adding 75-100 uL of 3,3′,5,5′-tetramethylbenzidine substrate (CST or ThermoFisher Scientific; TMBS) per well and incubated away from light for 30 min at 37° C. The reaction was terminated by adding 100 uL of 0.5 M H2SO4 per well. The absorbance was read at 450 nm. Curve fitting was performed using Graph Pad program.
On the technique in general: In an ELISA, binding on a coated surface is turned into a signal by an enzyme label.

The test system of assay [2] is Pfeiffer. Description: Methylated lysine of histone-H3 (H3K27Me3) detection by ELISA, Pfeiffer cells. The class given is cell-based, human. The note with it: Homo sapiens, 168 h, 7 days treatment, H3K27Me3 normalized to total histone-3, read-out: IC50 of cell methylation, Pfeiffer. As for the experimental part:
as §1, §2, §3

For assay [3], the target named is EZH2 enzyme complex (Homo sapiens (Human), UniProt Q15910). Description: Test on EZH2 inhibitory activity (TR-FRET). The note with it: EZH2 enzyme complex 25 ng/uL, histone H3 peptide 4 uM, SAM 2 uM, 300 min; read-out: IC50 of EZH2 inhibition. The class given is biochemical. In general terms: In TR-FRET formats the signal depends on donor and acceptor labels being close together.
Sequence of EZH2 enzyme complex (Q15910 whole entry): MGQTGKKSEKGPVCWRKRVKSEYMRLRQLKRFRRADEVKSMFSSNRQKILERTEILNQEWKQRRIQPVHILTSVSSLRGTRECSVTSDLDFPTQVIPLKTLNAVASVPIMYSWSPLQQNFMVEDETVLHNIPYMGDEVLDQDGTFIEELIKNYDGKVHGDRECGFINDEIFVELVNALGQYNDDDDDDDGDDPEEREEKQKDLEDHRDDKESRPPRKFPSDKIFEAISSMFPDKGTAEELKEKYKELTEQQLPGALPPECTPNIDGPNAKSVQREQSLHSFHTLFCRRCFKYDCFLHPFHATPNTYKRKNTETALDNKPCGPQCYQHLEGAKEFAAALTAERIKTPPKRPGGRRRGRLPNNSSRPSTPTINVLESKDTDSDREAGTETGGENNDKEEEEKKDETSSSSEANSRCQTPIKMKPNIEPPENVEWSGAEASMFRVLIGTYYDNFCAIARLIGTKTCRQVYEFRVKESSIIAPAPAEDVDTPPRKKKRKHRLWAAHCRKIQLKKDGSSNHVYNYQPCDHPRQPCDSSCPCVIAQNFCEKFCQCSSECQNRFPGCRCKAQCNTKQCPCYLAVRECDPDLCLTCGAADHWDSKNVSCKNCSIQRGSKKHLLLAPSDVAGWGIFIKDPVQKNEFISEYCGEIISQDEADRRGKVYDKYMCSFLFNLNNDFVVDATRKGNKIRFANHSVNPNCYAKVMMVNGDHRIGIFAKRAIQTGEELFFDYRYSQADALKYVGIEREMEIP
Sequence of EZH2 enzyme complex (O75530 whole entry partner): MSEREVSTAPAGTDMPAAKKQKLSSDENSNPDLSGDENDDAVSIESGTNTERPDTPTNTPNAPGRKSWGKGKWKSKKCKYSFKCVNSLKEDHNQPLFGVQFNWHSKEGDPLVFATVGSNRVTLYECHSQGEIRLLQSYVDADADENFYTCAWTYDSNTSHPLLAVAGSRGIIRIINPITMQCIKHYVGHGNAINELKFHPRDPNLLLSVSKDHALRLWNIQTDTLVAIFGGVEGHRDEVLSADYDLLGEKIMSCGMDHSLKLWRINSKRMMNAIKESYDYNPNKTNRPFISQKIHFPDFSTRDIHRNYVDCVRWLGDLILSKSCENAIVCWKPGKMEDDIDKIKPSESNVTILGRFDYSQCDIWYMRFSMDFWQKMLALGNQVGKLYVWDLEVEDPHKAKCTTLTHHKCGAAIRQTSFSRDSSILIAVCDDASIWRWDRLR
Sequence of EZH2 enzyme complex (Q15022 whole entry partner): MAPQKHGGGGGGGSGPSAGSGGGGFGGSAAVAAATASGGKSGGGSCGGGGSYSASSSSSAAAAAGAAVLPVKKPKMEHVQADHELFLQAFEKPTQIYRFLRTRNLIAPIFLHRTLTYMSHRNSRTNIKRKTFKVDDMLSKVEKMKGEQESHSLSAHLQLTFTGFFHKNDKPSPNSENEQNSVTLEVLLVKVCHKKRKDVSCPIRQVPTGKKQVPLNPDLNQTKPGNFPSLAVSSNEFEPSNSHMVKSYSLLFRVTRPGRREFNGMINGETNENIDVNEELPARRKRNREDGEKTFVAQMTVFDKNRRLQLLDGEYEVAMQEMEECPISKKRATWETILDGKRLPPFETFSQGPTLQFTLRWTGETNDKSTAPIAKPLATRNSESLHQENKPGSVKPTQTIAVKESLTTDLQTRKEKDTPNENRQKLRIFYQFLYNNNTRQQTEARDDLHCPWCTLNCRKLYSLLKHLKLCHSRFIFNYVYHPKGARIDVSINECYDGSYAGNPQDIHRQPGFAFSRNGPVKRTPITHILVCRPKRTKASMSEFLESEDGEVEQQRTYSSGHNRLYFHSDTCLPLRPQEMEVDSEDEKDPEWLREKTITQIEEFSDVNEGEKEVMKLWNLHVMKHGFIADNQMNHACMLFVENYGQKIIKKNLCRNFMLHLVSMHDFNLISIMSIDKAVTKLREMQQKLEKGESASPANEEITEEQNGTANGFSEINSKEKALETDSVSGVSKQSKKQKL

On to `CCN(c1cc(C2CC2)cc(C(=O)NCc2c(C)cc(C)[nH]c2=O)c1C)C1CCOCC1` [Example 14, 5-cyclopropyl-N-((4,6-dimethyl-2-oxo-1,2-dihydropyridin-3-yl)methyl)-3-(ethyl(tetrahydro-2H-pyran-4-yl)amino)-2-methylbenzamide], for which the IC50 in assay [1] was 0.05 to 0.5 µM; in assay [2] it was under 0.05 µM.

With `CCN(c1cc(OC2CCC2)cc(C(=O)NCc2c(C)cc(C)[nH]c2=O)c1C)C1CCOCC1` [Example 1, 5-cyclobutoxy-N-((4,6-dimethyl-2-oxo-1,2-dihydropyridin-3-yl)methyl)-3-(ethyl(tetrahydro-2H-pyran-4-yl)amino)-2-methylbenzamide], the IC50 in assay [3] is 0.01 to 0.1 µM; in assay [1] it was 0.05 to 0.5 µM; in assay [2], under 0.05 µM.

Take `CCN(c1cc(C2CC2CN2C[C@@H](C)O[C@@H](C)C2)cc(C(=O)NCc2c(C)cc(C)[nH]c2=O)c1Cl)C1CCOCC1` (stereo partly drawn) [Example 85, 2-chloro-N-((4,6-dimethyl-2-oxo-1,2-dihydropyridin-3-yl)methyl)-5-(2-(((2S,6R)-2,6-dimethylmorpholinyl)methyl)cyclopropyl)-3-(ethyl(tetrahydro-2H-pyran-4-yl)amino)benzamide]: the figures for the half-maximal inhibitory concentration (IC50) in assay [3] and in assay [1] were 0.1 to 1 µM and 0.5 to 1 µM, respectively.

Consider `CCN(c1cc(C2CC2CN2CCOCC2)cc(C(=O)NCc2c(C)cc(C)[nH]c2=O)c1C)[C@H]1CC[C@H](N(C)CCOC)CC1` (stereo partly drawn) [Example 82, N-((4,6-dimethyl-2-oxo-1,2-dihydropyridin-3-yl)methyl)-3-(ethyl(trans-4-((2-methoxyethyl)(methyl)amino)cyclohexyl)amino)-2-methyl-5-(2-(morpholinylmethyl)cyclopropyl)benzamide], for which the IC50 in assay [3] was 0.01 to 0.1 µM; in assay [1], 0.05 to 0.5 µM.

Regarding `CCN(c1cc(O[C@H]2C[C@H](N3CC4CC(C3)O4)C2)cc(C(=O)NCc2c(C)cc(C)[nH]c2=O)c1Cl)C1CCOCC1` [Example 55], the IC50 lay in the range of 0.01 to 0.1 µM in assay [3] and 0.05 to 0.5 µM in assay [1].

For `CCN(c1cc(C2CC2CN2CCNCC2)cc(C(=O)NCc2c(C)cc(C)[nH]c2=O)c1Cl)C1CCOCC1` (stereo not shown) [Example 83, 2-chloro-N-((4,6-dimethyl-2-oxo-1,2-dihydropyridin-3-yl)methyl)-3-(ethyl(tetrahydro-2H-pyran-4-yl)amino)-5-(2-(piperazin-1-ylmethyl)cyclopropyl)benzamide], the values for the half-inhibitory concentration (IC50) in assay [3] and in assay [1] were 0.01 to 0.1 µM and over 1 µM, respectively.

As to `CCN(c1cc(C2CC2CN2CCN(C(=O)OC)CC2)cc(C(=O)NCc2c(C)cc(C)[nH]c2=O)c1C)C1CCOCC1` (stereo not shown) [Example 80, methyl 4-((2-(3-(((4,6-dimethyl-2-oxo-1,2-dihydropyridin-3-yl)methyl)carbamoyl)-5-(ethyl(tetrahydro-2H-pyran-4-yl)amino)-4-methylphenyl)cyclopropyl)methyl)piperazine-1-carboxylate], the results for the IC50 in assay [3] and in assay [1] were 0.01 to 0.1 µM and under 0.05 µM, respectively.

Turning to `CCN(c1cc(O[C@H]2C[C@H](N3C[C@@H](C)O[C@@H](C)C3)C2)cc(C(=O)NCc2c(C)cc(C)[nH]c2=O)c1C)[C@H]1CC[C@H](N(C)CCOC)CC1` [Example 52, N-((4,6-dimethyl-2-oxo-1,2-dihydropyridin-3-yl)methyl)-5-(trans-3-(cis-2,6-dimethylmorpholinyl)cyclobutoxy)-3-(ethyl(trans-4-((2-methoxyethyl)(methyl)amino)cyclohexyl)amino)-2-methylbenzamide], the values for the IC50 in assay [3] and in assay [1] were 0.01 to 0.1 µM and 0.5 to 1 µM, respectively.

Take `CCN(c1cc(O[C@H]2C[C@@H](N3C[C@@H](C)O[C@@H](C)C3)C2)cc(C(=O)NCc2c(C)cc(C)[nH]c2=O)c1C)[C@H]1C[C@@H](C)O[C@@H](C)C1` [Example 33]: the IC50 was 0.1 to 1 µM in assay [3] and 0.05 to 0.5 µM in assay [2].
